Reference: patent US11701347B2, “Use of 5-fluoro-4-(4-fluoro-2-methoxyphenyl)-N-{4-[(S-methylsulfonimidoyl)methyl]pyridin-2-yl}pyridin-2-amine for treating diffuse large B-cell lymphoma” (Bayer Aktiengesellschaft, priority 2018, dated 2023)

Key:
DB = test: Cell proliferation assay (CellTiter Glo, 72 h); type: cell-based; conditions: Homo sapiens, DLBCL GCB subtype
Experimental: (§1) The proliferation of all (DLCBL) cell lines in the presence of different concentrations of Compound A′ or FR compound for 72 h was assessed using CellTiter Glo kits (Promega Corporation, Madison, Wis.). All expressed values were averages of triplicate experiments, and IC50 was calculated using GraphPad Prism 5 (GraphPad Software, San Diego, Calif.) according to the manufacturer's instructions or the MTS software.

HBL1 = test: Cell proliferation assay (CellTiter Glo, 72 h); type: cell-based; conditions: HBL1, DLBCL ABC subtype
Experimental: as §1

HT = test: Cell proliferation assay (CellTiter Glo, 72 h); type: cell-based; conditions: Homo sapiens, DLBCL GCB subtype
Experimental: as §1

OCI-LY-19 = test: Cell proliferation assay (CellTiter Glo, 72 h); type: cell-based; conditions: Homo sapiens, OCI-LY19, OCI-LY-19, DLBCL GCB subtype
Experimental: as §1

OCI-LY-3 = test: Cell proliferation assay (CellTiter Glo, 72 h); type: cell-based; conditions: Homo sapiens, OCI-Ly3, OCI-LY-3, DLBCL ABC subtype
Experimental: as §1

SU-DHL-10 = test: Cell proliferation assay (CellTiter Glo, 72 h); type: cell-based; conditions: Homo sapiens, SU-DHL10, SU-DHL-10, DLBCL GCB subtype
Experimental: as §1

SU-DHL-4 = test: Cell proliferation assay (CellTiter Glo, 72 h); type: cell-based; conditions: Homo sapiens, SU-DHL-4, DLBCL GCB subtype
Experimental: as §1

SU-DHL-5 = test: Cell proliferation assay (CellTiter Glo, 72 h); type: cell-based; conditions: Homo sapiens, SU-DHL-5, DLBCL GCB subtype
Experimental: as §1

SU-DHL-6 = test: Cell proliferation assay (CellTiter Glo, 72 h); type: cell-based; conditions: Homo sapiens, SU-DHL-6, DLBCL GCB subtype
Experimental: as §1

SU-DHL-8 = test: Cell proliferation assay (CellTiter Glo, 72 h); type: cell-based; conditions: Homo sapiens, SU-DHL-8, DLBCL GCB subtype
Experimental: as §1

TMD8 = test: Cell proliferation assay (CellTiter Glo, 72 h); type: cell-based; conditions: Homo sapiens, TMD8, DLBCL ABC subtype
Experimental: as §1

[1] = tested on: subcutaneous DLBCL OCI-LY-3 xenografts; test: In vivo efficacy in DLBCL OCI-LY-3 xenograft model; design: species or system female SCID mice; conditions: 10 mg/kg q7d iv, 14 days, end of experiment
Experimental: (§2) The aim of the present experiments was to assess the in vivo efficacy and tolerability of Compound A′ in monotherapy in the DLBCL OCI-LY-3 tumour model subcutaneously implanted in SCID mice. In vivo efficacy was determined in female SCID mice bearing subcutaneous DLBCL OCI-LY-3 xenografts. Compound A′ was assessed at one dose level in monotherapy. Anti-tumour activity and tolerability of the treated group was assessed using the vehicle control group as a reference.
(§3) At randomisation, the area of growing tumours was initially determined Animals bearing one tumour of an area of 25-35 mm2 were distributed in experimental groups according to the study protocol. The day of randomisation is designated as day 0 of an experiment Animals either received Compound A′ (formulated in 30% PEG400/10% Ethanol/60%water), at a dose of 10 mg/kg q7d intravenously or vehicle control (qd po) for a period of 14 days.
At the end of the experiment Treatment to Control ratios (T/C) were calculated based on the mean tumor area and the mean tumor weight in the Compound A′ treatment group and in the vehicle control group.

[2] = tested on: subcutaneous DLBCL SU-DHL-10 xenografts; test: In vivo efficacy in DLBCL SU-DHL-10 xenograft model; design: species or system female SCID mice; conditions: 15 mg/kg q7d iv, 16 days, end of experiment
Experimental: (§4) The aim of the present experiments was to assess the in vivo efficacy and tolerability of Compound A′ in monotherapy in the DLBCL SU-DHL-10 tumour model subcutaneously implanted in SCID mice. In vivo efficacy was determined in female SCID mice bearing subcutaneous DLBCL SU-DHL-10 xenografts. Compound A′ was assessed at one dose level in monotherapy. Anti-tumour activity and tolerability of the treated group was assessed using the vehicle control group as a reference. […] At randomisation, the area of growing tumours was initially determined Animals bearing one tumour of an area of 25-35 mm2 were distributed in experimental groups according to the study protocol. The day of randomisation is designated as day 0 of an experiment Animals either received Compound A′ (formulated in 30% PEG400/10% Ethanol/60%water), at a dose of 15 mg/kg q7d intravenously or vehicle control (q7d iv) for a period of 16 days.
(§5) The maximum body weight loss was −9% in Compound A′ group compared to −4% in the vehicle group indicating moderate tolerability of Compound A′ at a dose of 15 mg/kg q7d iv. At the end of the experiment the Treatment to Control ratios (T/C) was calculated based on the mean tumor area in the Compound A′ treatment group and in the vehicle control group.

[3] = Tolerability in OCI-LY-3 xenograft study; type: in vivo; conditions: 10 mg/kg q7d iv, 14 days
Experimental: as §2, §3

[4] = Tolerability in SU-DHL-10 xenograft study; type: in vivo, female SCID mice; conditions: 15 mg/kg q7d iv, 16 days
Experimental: as §4, §5

Compound | IC50 (DB) [nM] | IC50 (HBL1) [nM] | IC50 (HT) [nM] | IC50 (OCI-LY-19) [nM] | IC50 (OCI-LY-3) [nM] | IC50 (SU-DHL-10) [nM] | IC50 (SU-DHL-4) [nM] | IC50 (SU-DHL-5) [nM] | IC50 (SU-DHL-6) [nM] | IC50 (SU-DHL-8) [nM] | IC50 (TMD8) [nM] | T/C by area (Treatment to Control ratio, mean tumor area) [1] | T/C by weight (Treatment to Control ratio, mean tumor weight) [1] | T/C by area (Treatment to Control ratio, mean tumor area) [2] | Fatal toxicities [3] | maximum body weight loss [3] [%] | maximum body weight loss [4] [%]
COc1cc(F)ccc1-c1cc(Nc2cc(CS(C)(=N)=O)ccn2)ncc1F (single isomer, unassigned; (+)) [Compound A′, (+)-5-Fluoro-4-(4-fluoro-2-methoxyphenyl)-N-{4-[(S-methylsulfonimidoyl)methyl]pyridin-2-yl}pyridin-2-amine] | 88 | 196 | 81 | 39 | 83 | 129 | 90 | 105 | 37 | 93 | 100 | 0.29 | 0.24 | 0.02 | did not occur | −6 | −9
COc1cc(F)ccc1-c1ncnc(Nc2cccc(CS(C)(=N)=O)c2)n1 (centres unmarked) [FR compound, reference compound] | 570 | 540 | 710 | 480 | 340 | 600 | 170 | – | 360 | 610 | – | – | – | – | – | – | –
